Results reported in patent US5739273A, “Transmembrane polypeptide and methods of use” (Yale University, priority 1994, dated 1998).
Residues, ends and D or L forms follow the SMILES beside them.

Experiment: circular dichroism titration in the presence of small unilamellar phospholipid vesicles
Assay type: physicochemical
Details: circular dichroism at 222 nanometers vs pH, DMPC small unilamellar vesicles
Text: FIG. 5A is a graph showing the circular dichroism analysis of the synthetic polypeptide of FIG. 1 in the presence of dimyristoyl phosphatidylcholine (DMPC) vesicles at various pH values. The black squares indicate the initial titration (down). The open circles indicate the reverse titration (up). The open triangles indicate the second titration (down).
The well-known spectroscopic technique of polarized infrared linear dichroism is used to determine the orientation of the alpha-helical domain of the polypeptide. The orientation of the polypeptide in protein/phospholipid multilayers is inferred from the dichroism of two amide vibrations.
FIG. 5A is a graph showing circular dichroism titration of the synthetic polypeptide having the amino acid sequence set forth in FIG. 1 and sequence listing identification number 1, in the presence of a solution containing small unilamellar phospholipid vesicles made from synthetic dimyristoyl phosphatidylcholine. The y axis is millidegrees at 222 nanometers, and the x axis is pH. […] FIG. 5B is a corresponding control graph showing circular dichroism titration of the polypeptide in the […] of lipid molecules.

CC[C@H](C)[C@H](NC(=O)[C@@H]1CCCN1C(=O)[C@H](CC(N)=O)NC(=O)[C@H](CCC(N)=O)NC(=O)[C@H](CCC(=O)O)NC(=O)CNC(=O)CN)C(=O)N[C@@H](Cc1ccc(O)cc1)C(=O)N[C@@H](Cc1c[nH]c2ccccc12)C(=O)N[C@@H](C)C(=O)N[C@@H](CCCNC(=N)N)C(=O)N[C@@H](Cc1ccc(O)cc1)C(=O)N[C@@H](C)C(=O)N[C@@H](CC(=O)O)C(=O)N[C@@H](Cc1c[nH]c2ccccc12)C(=O)N[C@@H](CC(C)C)C(=O)N[C@@H](Cc1ccccc1)C(=O)N[C@H](C(=O)N[C@H](C(=O)N1CCC[C@H]1C(=O)N[C@@H](CC(C)C)C(=O)N[C@@H](CC(C)C)C(=O)N[C@@H](CC(C)C)C(=O)N[C@@H](CC(C)C)C(=O)N[C@@H](CC(=O)O)C(=O)N[C@@H](CC(C)C)C(=O)N[C@@H](C)C(=O)N[C@@H](CC(C)C)C(=O)N[C@@H](CC(C)C)C(=O)N[C@H](C(=O)N[C@@H](CC(=O)O)C(=O)N[C@@H](C)C(=O)N[C@@H](CC(=O)O)C(=O)N[C@@H](CCC(=O)O)C(=O)NCC(=O)N[C@H](C(=O)O)[C@@H](C)O)C(C)C)[C@@H](C)O)[C@@H](C)O [synthetic polypeptide] (H-GGEQNPIYWARYADWLFTTPLLLLDLALLVDADEGT-OH)
pKa of formation of a polypeptide alpha-helix: 6.0
